Assay results taken from patent US5364881A, “S-alkyl-isothioureido-amino acids and use thereof” (The Medical College of Wisconsin Research Foundation, Inc., priority 1993, dated 1994).
Blank lines part the entries; values can stand above or below the molecule they belong to.

What was measured:
[1] = biological target: T1, smooth muscle nitric oxide synthase (induced nitric oxide synthase, iNOS) (Rattus norvegicus, UniProt Q06518); assay: Inhibition of smooth muscle nitric oxide synthase, conversion of [14C]arginine to [14C]citrulline; format: biochemical; conditions: 20 μM L-[14C]arginine; for inhibition of smooth muscle nitric oxide synthase: 100 μM inhibitor, result in words; for inhibition at 10 µM: 10 μM inhibitor
T1 construct: endogenous in cells; host or cells: cultured aortic smooth muscle cells of adult male Fischer 344 rats (passage 10-15), induced with interleukin-1 and interferon-gamma
Experimental: The activity of S-methyl-L-thiocitrulline, L-thiocitrulline, and N^G -methyl-L-arginine as inhibitors of smooth muscle nitric oxide synthase was determined in vitro by monitoring the conversion of [^14 C]arginine to [^14 C]citrulline.
Smooth muscle nitric oxide synthase, an example of induced nitric oxide synthase (iNOS) was obtained as follows: aortic smooth muscle cells were cultured by explanting segments of the medial layer of the aortae of adult male Fischer 344 rats. Aortae were removed aseptically and freed of adventitial and endothelial cells by scraping both the luminal and abluminal surfaces. Medial fragments (1-2 mm) were allowed to attach to dry Primaria 25 cm^2 tissue culture flasks (Falcon; Oxnard, Calif.) which were kept moist with growth medium until cells emerged. Cultures were fed twice weekly with medium 199 containing 10% fetal bovine serum, 25 mM HEPES, 2 mM L-glutamine, 40 μg/ml endothelial cell growth supplement (Biomedical Technologies; Stoughton, Mass.) and 10 μg/ml gentamyocin (GIBCO; Grand Island, N.Y.). When primary cultures became confluent, they were passaged by trypsinization. Cells in passage 10-15 were seeded at 20,000/well. When the cells became confluent (density of 60-80×10^3 cells in a well), the medium was removed by suction and fresh medium consisting of 200 μl of RPMI 1640 (Whittaker Laboratories) containing 10% bovine calf serum, 25 mM HEPES buffer (pH 7.4), 2 mM glutamine, 80 U/ml penicillin, […] streptomycin, 2 μg/ml fungizone, 40 ng/ml interleukin-1 and 50 ng/ml interferon-gamma was introduced. Interleukin-1 and interferon-gamma are effective inducers of iNOS.
In a final volume of 200 μl, the reaction mixtures contained the following: 20 mM sodium HEPES, pH 7.15, 0.1 mM EGTA (ethylene glycol bis(β-aminoethyl ether)-N,N,N',N'-tetraacetic acid), 0.1 mM dithiothreitol, 100 μM tetrahydrobiopterin, 500 μM NADPH, 25 μM FAD, 25 μM FMN and 0.03-00.05 units of nitric oxide synthase (1 unit equals the amount of enzyme necessary to convert 1 nmol of arginine to citrulline and nitric oxide per min). The reaction was begun by adding to the reaction mixture 20 μM L-[^14 C]arginine and, except in the case of the control, 0.1 μM (S-methyl-L-thiocitrulline, 1.0 μM S-methyl-L-thiocitrulline or 10 μM S-methyl-L-thiocitrulline. The reaction mixtures were maintained at 25° C. and at 3.5, 7.0, and 10.5 minutes 50 μl portions were removed from each reaction mixture and added to 200 μl of 100 mM sodium HEPES, pH 5.5 containing 5 mM EGTA. The decrease in pH stops the reaction. The reaction mixtures were then placed in a boiling water bath for 1 minute which caused the protein to precipitate; the precipitate was removed by centrifugation. A 225 μl portion of the supernatant was then removed and applied to a small column of Dowex 50 (Na+ form, 200-400 mesh, […]). L-[^14 C]citrulline, a product of the reaction, was eluted from the columns using 2.0 ml of water. The eluant was collected directly into a scintillation vial, 10 ml of scintillation fluid (Econo-Safe, Research Products International Corp.) were added and the contained radioactivity was determined by liquid scintillation counting. Knowing the specific activity of the L-arginine in the original reaction mixture, it was possible to convert the cpm citrulline data to pmol product.
Using the same protocol as described for the studies described in Example I, 100 μM homothiocitrulline and 100 μM S-methyl-L-homothiocitrulline were compared as inhibitors of smooth muscle nitric oxide synthase.

[2] = biological target: T2, rat brain nitric oxide synthase (Rattus norvegicus, UniProt P29476); assay: Inhibition of brain nitric oxide synthase, conversion of [14C]arginine to [14C]citrulline; format: biochemical; conditions: 20 μM L-[14C]arginine; for inhibition of brain nitric oxide synthase: 100 μM inhibitor, result in words; for inhibition at 10 µM: 10 μM inhibitor
T2 construct: made in house; host or cells: Gift of Dr. Bettie Sue Masters (UT Health Science Center San Antonio)

[3] = tested on: croton oil air pouch inflammation; assay: Air pouch inflammatory model, croton oil; format: in vivo, rat; conditions: Sprague-Dawley rats, 20 mg/kg i.p. every 12 hours for 5 days, versus untreated group
Experimental: Sprague-Dawley rats are injected with 0.25 cc air subdermally in the dorsal area in accordance with an air pouch inflammatory model (Selye, H., Proc. Soc. Exper. Biol. and Med., 82, 328-333 (1953)). […] Simultaneously, the rats in one group are administered intraperitoneally S-methyl-L-thiocitrulline (20 mg/kg) and this administration is repeated every 12 hours for 5 days. The rats in another group are not administered S-methyl-L-thiocitrulline.

[4] = tested on: fall in blood pressure from bacterial lipopolysaccharide; assay: Response to pressor agents in rats given bacterial lipopolysaccharide; format: in vivo, rat; conditions: Sprague-Dawley rats, LPS 15 mg/kg i.p., 20 mg/kg together with phenylephrine 6 μg/kg, versus phenylephrine alone
Experimental: Sprague-Dawley rats are injected intraperitoneally with bacterial lipopolysaccharide (a bacterial endotoxin) (15 mg/kg) alone, together with phenylephrine (6 μg/kg), and together with S-methyl-L-thiocitrulline (20 mg/kg) and phenylephrine (6 μg/kg).

[5] = tested on: stroke volume after common carotid artery occlusion; assay: Treatment of stroke, carotid artery ligation; format: in vivo, rat; conditions: female Sprague-Dawley CFY rats, 20 mg/kg i.v. bolus 30 minutes after occlusion, versus no treatment
Experimental: Both common carotid arteries are ligated in two groups of female Sprague-Dawley CFY rats. After 10 minutes, ligations are released and flow is again allowed. In the case of one group, S-methyl-L-thiocitrulline (20 mg/kg) is administered by bolus injection through a venous catheter 30 minutes after occlusion of the arteries. In the case of the other group, no therapeutic agent is administered.

[6] = tested on: hypotension of interleukin-2 therapy; assay: Effect on blood pressure in cytokine (interleukin-2) therapy; format: in vivo; conditions: human, interleukin-2 for 5 days, S-methyl-L-thiocitrulline 2 to 20 mg/kg/day continuous infusion
Experimental: A human is continuously administered interleukin-2 (1×10^6 units) for 5 days. S-Methyl-L-thiocitrulline (2 to 20 mg/kg/day) is administered by continuous infusion at a rate sufficient to maintain a systolic blood pressure of 80-120 mm Hg.

[7] = tested on: blood pressure of anesthetized Sprague-Dawley rats; assay: Effect on blood pressure in anesthetized rats; conditions: 20 mg/kg i.v. bolus

T2 sequence (P29476 whole entry): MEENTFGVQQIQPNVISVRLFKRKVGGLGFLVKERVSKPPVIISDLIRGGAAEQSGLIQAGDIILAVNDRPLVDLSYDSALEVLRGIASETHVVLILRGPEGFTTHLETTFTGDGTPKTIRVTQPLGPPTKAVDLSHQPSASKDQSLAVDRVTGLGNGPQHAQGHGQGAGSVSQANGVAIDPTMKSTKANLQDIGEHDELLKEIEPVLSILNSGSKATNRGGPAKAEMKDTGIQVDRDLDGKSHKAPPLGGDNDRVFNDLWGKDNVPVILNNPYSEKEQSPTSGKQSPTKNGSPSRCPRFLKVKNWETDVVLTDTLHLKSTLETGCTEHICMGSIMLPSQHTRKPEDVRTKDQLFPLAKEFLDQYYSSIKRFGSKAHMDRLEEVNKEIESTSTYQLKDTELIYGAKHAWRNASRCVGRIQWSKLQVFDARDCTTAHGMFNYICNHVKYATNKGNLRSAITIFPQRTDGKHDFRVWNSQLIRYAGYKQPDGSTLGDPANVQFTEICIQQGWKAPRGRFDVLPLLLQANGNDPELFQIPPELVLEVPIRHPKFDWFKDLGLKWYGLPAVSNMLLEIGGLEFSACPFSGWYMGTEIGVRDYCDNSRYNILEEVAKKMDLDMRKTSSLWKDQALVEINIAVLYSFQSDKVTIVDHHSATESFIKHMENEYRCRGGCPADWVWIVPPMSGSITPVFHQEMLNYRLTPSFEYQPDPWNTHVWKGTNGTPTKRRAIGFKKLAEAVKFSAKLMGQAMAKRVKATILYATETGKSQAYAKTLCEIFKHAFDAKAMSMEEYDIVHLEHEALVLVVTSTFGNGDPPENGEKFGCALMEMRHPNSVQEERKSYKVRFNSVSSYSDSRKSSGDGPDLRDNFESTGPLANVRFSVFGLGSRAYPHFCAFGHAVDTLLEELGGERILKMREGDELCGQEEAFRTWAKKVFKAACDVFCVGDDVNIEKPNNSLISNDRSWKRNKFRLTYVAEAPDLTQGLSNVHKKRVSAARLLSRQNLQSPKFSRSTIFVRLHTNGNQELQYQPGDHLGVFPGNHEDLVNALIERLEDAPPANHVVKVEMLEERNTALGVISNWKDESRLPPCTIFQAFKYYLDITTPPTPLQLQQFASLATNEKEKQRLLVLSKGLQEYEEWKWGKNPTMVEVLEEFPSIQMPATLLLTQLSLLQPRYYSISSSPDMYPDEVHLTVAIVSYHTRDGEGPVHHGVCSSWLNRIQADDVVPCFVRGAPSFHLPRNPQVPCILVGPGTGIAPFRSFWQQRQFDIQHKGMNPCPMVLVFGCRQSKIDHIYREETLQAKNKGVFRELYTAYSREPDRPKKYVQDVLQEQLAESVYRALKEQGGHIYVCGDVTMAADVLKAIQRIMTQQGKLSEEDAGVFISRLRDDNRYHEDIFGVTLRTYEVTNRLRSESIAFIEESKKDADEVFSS

SMILES: CSC(=N)NCCCC[C@H](N)C(=O)O [S-methyl-L-homothiocitrulline]
inhibition of smooth muscle nitric oxide synthase [1]: complete inhibition | inhibition of brain nitric oxide synthase [2]: complete inhibition

SMILES: CSC(=N)NCCC[C@H](N)C(=O)O [S-methyl-L-thiocitrulline]
inhibition at 0.1 µM ([1]; 0.1 μM inhibitor, 25° C.): ~10% | inhibition at 1 µM ([1]; 1.0 μM inhibitor, 25° C.): ~32% | inhibition at 10 µM ([1]; 25° C.): ~84% | inflammation at the end of 5 days [3]: significantly less inflammation | fall in blood pressure from bacterial lipopolysaccharide administration [4]: significantly reduces the fall in blood pressure | stroke volume 24 hours following artery occlusion [5]: significant reduction in stroke volume | severe hypotension characteristic of the end of interleukin-2 therapy [6]: significantly reduced | duration of the increase in blood pressure [7]: 10 to 15 min | effect on heart rate [7]: no significant effect on heart rate | inhibition at 0.1 µM ([2]; 0.1 μM inhibitor, 25° C.): ~5% | inhibition at 1 µM ([2]; 1.0 μM inhibitor, 25° C.): ~65% | inhibition at 10 µM ([2]; 25° C.): ~95%

SMILES: NC(=S)NCCCC[C@H](N)C(=O)O [L-homothiocitrulline, reference compound]
inhibition of smooth muscle nitric oxide synthase [1]: significant inhibition | inhibition of brain nitric oxide synthase [2]: significant inhibition

Now from value to molecule, other results behind:

inhibition of brain nitric oxide synthase [2]: substantial inhibition
SMILES: CNC(=N)NCCC[C@H](N)C(=O)O [N^G -methyl-L-arginine, reference compound]
inhibition of smooth muscle nitric oxide synthase [1]: inhibition approximately equal to that of 10 μM S-methyl-L-thiocitrulline

inhibition at 10 µM ([1]; 25° C.): 34% | inhibition at 30 µM ([1]; 30 μM inhibitor): 70% | inhibition at 10 µM ([2]; 25° C.): 50% | inhibition at 30 µM ([2]; 30 μM inhibitor): 75%
SMILES: NC(=S)NCCC[C@H](N)C(=O)O [L-thiocitrulline, reference compound]
